Laboratory results from patent US20080275105A1, “Selective Muscle Relaxant and Pharmaceutical Compositions” (UNIVERSIDADE FEDERAL DO RIO DE JANEIROUFRJ, priority 2004, published 2008).

Experiments:
[1] = test system: rat aorta rings with preserved endothelium; assay: KCl-induced contracture in aorta rings with preserved endothelium; type: cell-based; details: KCl 40 mM; for amplitude of the KCl contracture, with endothelium: 200 μM stated for L790; for IC50: Rattus norvegicus, with endothelium, six experiments, read-out: CI50 (μM) Average ± SEM
Description: (§1) Once the experiments have been carried out, the findings were subject to statistical analyses being expressed in average ±SEM as a percentage of the control value, and graphs were drawn up using the Sigma Plot 5.0 program to represent the data obtained. For the statistical analysis of the effects on the different muscle tissues, the difference was assessed among the concentrations of the same derivative, using the “t” Student test. In order to ascertain the difference among the derivatives, the one-way ANOVA test was used. The differences were considered as significant for p<0.05. The Cl50 was expressed as an average ±SEM of the values obtained for each experiment through non-linear regression based on the y=yo+ae^−bx equation.
(§2) Male Wistar rats weighing between 240-280 grams were sacrificed through dislocation of the cervical column under anesthesia using ethyl ether. The aorta artery was removed and transferred to a Petri dish containing modified Tyrode's solution whose composition is described in Table 3 below, where the vessel was cleaned and the connective tissue was removed. According to the scheduled Experiment Protocol, the vascular endothelium was removed mechanically with the assistance of a polyethylene rod. The artery was divided into rings with a width of 2-3 mm. Two hooks were placed in the wall of the vessel in order to record the tension generated by the muscle in a transversal direction. To do so, one of the hooks was tied to a fixed point in the chamber and the other to a power transducer (FT 03) for recording the isometric tension. The tension generated by the muscle was transformed into a digitized electric signal (Digidata 1322A) and stored in a computer for subsequent analysis using the Axoscope 8.0 program (Axon Instruments, Inc). The chamber was filled with Krebs solution, oxygenated and kept at a temperature of 37° C.
(§3) After stabilizing the preparation, approximately 120 minutes, the Experiment Protocol began. Initially, in order to identify the presence or absence of the vascular endothelium, the preparation was exposed to phenylephrine (10 μM) and when the contracture in response to this substance was stabilized, acetylcholine (10 μM) was added to the nutrient solution. Relaxation of over 80% in response to the acetylcholine indicated the full integrity of the endothelium and relaxation of less than 10% indicated the absence of endothelium. The tissues in which the relaxation intensity fell between >10% and <80% were discarded. In order to investigate the vasodilator effect of the different L294 analogs, they were added to the experiment chambers in rising concentration after the contracture stabilization of the vessel induced by phenylephrine. The tension registered after treatment with each of the L294 analog concentrations was normalized as a function of the amplitude of the contracture triggered by phenylephrine. For the purpose of comparing the potency of some of the L294 analogs, the Cl50 was determined for each experiment using the y=yo+ae^−bx equation and their mean was used for the statistical analysis.
The effects of the L294 analogs were investigated in rat aorta rings with preserved endothelium whose contracture was induced by increasing the extra-cellular concentration of KCl to 40 mM. Of the seven L294 analogs, this test was carried out only with the L785, L786, L789 and L790, in this group of experiments.

[2] = test system: rat aorta rings with no endothelium; assay: KCl-induced contracture in aorta rings without endothelium; type: cell-based; details: KCl 40 mM; for IC50: Rattus norvegicus, without endothelium, six experiments, read-out: CI50 (μM) Average ± SEM
Description: as §1, §2
as §3, with “[…] […]” for “In order to investigate the vasodilator effect of the different L294 analogs, they were added to the experiment chambers in rising concentration after the contracture stabilization of the vessel induced by phenylephrine. The tension registered after treatment with each of the L294 analog concentrations was normalized as a function of the amplitude of the contracture triggered by phenylephrine.”

soleus (SOL) muscle = assay: Electrically induced twitch amplitude in slow-fiber skeletal muscle (SOL); type: cell-based, mice; details: for SOL twitch amplitude 30 min-Washing (% of the control): 30 min after washing
Description: Male mice weighing 22-28 g were sacrificed through cervical dislocation and the extensor digitorium longus (EDL) and soleus (SOL) muscles were dissected in a Ringer-Krebs solution, whose composition is given in Table 9, at room temperature. The muscles were placed in vertical chambers with a capacity of 10 ml, and were fixed by their ends to the stimulation electrode fixation rod and a power transducer (Grass FT03) for registering muscle twitches. The chamber solution was bubbled continuously with a carbogenic mixture (95% O2/5% CO2) and kept at a temperature of 37° C. The muscles were stimulated electrically through a stimulator (Grass S88) at a frequency of 0.2 Hz, at 37° C. After the stabilization of the muscle twitches (±30 minutes) a control record was taken in the absence of the drug, and subsequently rising concentrations (from 10 μM to 200 μM) of the L294 derivatives were added every ten minutes, diluted in DMSO. […] The signals recorded by the transducer were amplified (Cyberamp) and the isometric tension was digitized (Digidata 1322A) and stored on a computer. The screening and analysis of the experiment was handled through the use of the Axoscope 8.0 program. (Zapata-Sudo, 2003).
A measurement of the electrically-induced twitch amplitude was selected to assist the effects of the L294 analogs on the skeletal muscle inotropism. One muscle consisting of fast fibers (extensor digitorium longus-EDL) and the other of slow fibers (soleus-SOL) taken from mice were selected for this purpose. Differences in the timing of the twitches between the fast and slow muscles are shown at the faster recording speed. […] Washing the preparation with Krebs solution caused a partial reversion of the effects induced by the L786.

tracheal rings of a rat = assay: Acetylcholine-induced contracture of trachea rings; type: cell-based; details: acetylcholine 10 μM; for muscle relaxation effect on trachea rings: cumulative concentrations up to 200 μM, result in words
Description: A preparation of trachea rings is used for observing the probable action of these powerful vasodilators in other smooth musculature tissues. FIG. 12 presents the typical record of the acetylcholine-induced trachea rings contracture (Ach, 10 μM) followed by exposure to rising cumulative concentrations of the L785 derivative up to 200 μM. A dose-dependent reduction may be noted in the amplitude of the acetylcholine-induced contracture.
The same protocol was used for the L786 derivative and the solvent (FIG. 13).

IC50 [1] [µM]	IC50 [2] [µM]	SMILES	amplitude of the KCl contracture, with endothelium [1]	reversal of the contracture caused by K+, without endothelium ([2]; highest concentration 200 μM, result in words)	SOL twitch amplitude 200 μM (% of the control) (soleus (SOL) muscle)	SOL twitch amplitude 30 min-Washing (% of the control) (soleus (SOL) muscle)	muscle relaxation effect on trachea rings (tracheal rings of a rat)	effect on SOL muscle twitches (soleus (SOL) muscle; 50 μM, result in words)	amplitude of the acetylcholine-induced contracture of trachea rings (tracheal rings of a rat; 200 μM)
34.1 ± 6.3	40.5 ± 9.5	CN(/N=C/c1cccs1)C(=O)c1ccc2c(c1)OCO2 [L785, 1,3-Benzodioxol-5-carboxylic acid, N-methyl-N′-[1-thiophene-2-yl-meth-(E)-ylidene]-hydrazide]	8.1±3.8 % of the control	unable to completely reverse the contracture	28.4±6.6 % of the control	37.9 ± 9.6 % of the control	significant dose-dependent muscle relaxation effect	–	–
127 ± 13.7	151 ± 7.6	O=C(c1ccc2c(c1)OCO2)N(Cc1ccccc1)/N=C/c1cccs1 [L786, 1,3-Benzodioxol-5-carboxylic acid, N-benzyl-N′-[1-thiophene-2-yl-meth-(E)-ylidene]-hydrazide]	51.1±2.8 % of the control	–	61.9±5.5 % of the control	77.0 ± 10.3 % of the control	The same effect was not observed	reduction in the amplitude and an extension in the duration of the muscle twitches	25.3±12.1 % of the control
